ChEMBL document CHEMBL5375976, “Discovery of Inhibitory Fragments That Selectively Target Spire2-FMN2 Interaction” (J Med Chem, 2023)

Molecular target: T1, Fermitin family homolog 2 (Homo sapiens) (UniProt Q96AC1)
T1 sequence (whole entry): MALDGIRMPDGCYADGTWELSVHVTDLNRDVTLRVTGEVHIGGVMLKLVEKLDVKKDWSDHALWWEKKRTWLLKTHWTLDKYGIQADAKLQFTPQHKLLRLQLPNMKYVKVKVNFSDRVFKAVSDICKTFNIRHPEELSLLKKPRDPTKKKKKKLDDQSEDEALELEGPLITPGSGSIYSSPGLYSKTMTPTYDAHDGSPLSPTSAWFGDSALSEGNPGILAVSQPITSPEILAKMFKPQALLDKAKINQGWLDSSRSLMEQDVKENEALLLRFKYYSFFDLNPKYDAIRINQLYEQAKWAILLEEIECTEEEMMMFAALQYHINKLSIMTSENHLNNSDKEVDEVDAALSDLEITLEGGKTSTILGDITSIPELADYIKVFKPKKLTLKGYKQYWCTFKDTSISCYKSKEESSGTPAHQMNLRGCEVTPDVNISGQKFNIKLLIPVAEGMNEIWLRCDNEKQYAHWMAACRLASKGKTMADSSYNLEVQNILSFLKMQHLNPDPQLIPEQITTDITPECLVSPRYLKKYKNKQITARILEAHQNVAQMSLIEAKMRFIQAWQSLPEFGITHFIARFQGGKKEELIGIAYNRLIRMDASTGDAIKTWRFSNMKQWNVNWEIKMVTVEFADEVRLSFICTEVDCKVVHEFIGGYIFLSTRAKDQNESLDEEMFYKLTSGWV
Description: Binding affinity to His6-tagged KIND2 (unknown origin) expressed in Escherichia coli BL21(DE3) assessed as change in melting temperature by DSF analysis

SMILES: NCCNc1ccnc2cc(OCc3ccccc3)ccc12
- ΔTm: 0 °C
